According to US10307388B2, “Compositions and methods for diagnosis and treatment of inflammation” (The United States of America as represented by the …, priority 2016, dated 2019):
“Also recorded” adds a separate entry of the source.

Key:
[1] = Total serum fatty acid concentrations in dolphins fed modified fish diet; conditions: for concentration at 0 month / concentration at 1 month / concentration at 3 month / concentration at 6 month: bottlenose dolphin (Tursiops truncatus); for Total serum fatty acid concentration: case dolphins fed modified diet (n = 20)
Protocol: This study examined the impact on inflammation by modifying fatty acid profiles through the diet in 20 MMP dolphins (“Group A dolphins”). The dolphins lived in netted enclosures within San Diego Bay. […] On blood collection days, Group A dolphins were fed one-third of their daily diet in the morning after their routine overnight fast and 2h postprandial, in-water, and trained blood samples were drawn (typically near 10:00 a.m.). An additional ten MMP dolphins (“Group B dolphins”) were maintained on the baseline capelin diet throughout the study period.
Two hour post-prandial samples were collected from Group A and Group B dolphins at baseline (month 0) and at three time points following the switch to the modified diet: months 1, 3, and 6. Dolphins were assessed for changes in serum fatty acid concentrations (total and various forms) and indices of inflammation, including erythrocyte sedimentation rate and alkaline phosphatase.
Blood was collected into BD Vacutainer serum separator tubes (for serum fatty acid profiles) or an evacuated tube containing EDTA (K3). Serum separator tubes were centrifuged at 3000 rpm for 10 minutes within 30 to 60 minutes of collection and chilled during processing until shipment. Serum was transferred to cryovials and stored at −80° C. until shipment on dry ice via overnight courier to the reference laboratories.
Total serum fatty acid profiles were performed by the Genetics Laboratories at the Kennedy Krieger Institute. […] Each run was required to pass clinical laboratory quality control before the data were released. […] Percent fatty acids in serum was used as a sturdier index to help reduce potential variability in serum among study dolphins.
Statistical analyses were conducted using World Programming System software (World Programming Ltd., Hampshire, United Kingdom). Significance was defined as a P value less than or equal to 0.05. Mean daily dietary intake of individual fatty acids were compared between pre-study and in-study diets for Group A and Group B dolphins using Wilcoxon rank sum tests. Indices of inflammation (erythrocyte sedimentation rate and alkaline phosphatase) and serum fatty acid concentrations (total and individual classes) from Month 1, 3, and 6 were compared with Month 0 for Group A and Group B dolphins using repeated measures ANOVA (MIXED model). […] Fatty acids that were independent predictors of erythrocyte sedimentation rate were then tested for linear associations with erythrocyte sedimentation rate using simple linear regressions. Fatty acids that were independent predictors of erythrocyte sedimentation rate and had inverse linear associations with these indices (defined as a P value less than or equal to 0.05 and an R^2 greater than or equal to 0.1), were characterized as fatty acids that independently predicted improved inflammation.

[2] = Serum fatty acid form concentrations (complex lipidomics) in dolphins fed modified fish diet; format: in vivo; conditions: bottlenose dolphin (Tursiops truncatus), case dolphins fed modified diet (n = 20), read-out: Serum concentration, FFA (free fatty acid) form; for concentration at 0 month: Month 0 (baseline); for concentration at 1 month: Month 1; for concentration at 3 month: Month 3; for concentration at 6 month: Month 6
Protocol: Determination of serum fatty acid concentrations, including a variety of fatty acid classes, were performed by Metabolon, Inc. (Durham, N.C.) using complex lipidomics. […] The extracts were concentrated under nitrogen and reconstituted in 0.25 mL of dichloromethane:methanol (50:50) containing 10 mM ammonium acetate. The extracts were placed in vials for infusion-MS analyses, performed on a SelexION equipped Sciex 5500 QTRAP using both positive and negative mode electrospray. Each sample was subjected to 2 analyses, with IMS-MS conditions optimized for lipid classes monitored in each analysis. The 5500 QTRAP was operated in MRM mode to monitor the transitions for over 1,100 lipids from up to 14 lipid classes. Individual lipid species were quantified based on the ratio of signal intensity for target compounds to the signal intensity for an assigned internal standard of known concentration. Lipid class concentrations were calculated from the sum of all molecular species within a class, and fatty acid compositions were determined by calculating the proportion of individual fatty acids within each class.

IL-6, IL-18, and MCP-1 = test: Serum adipokines (cytokines) in high fat diet induced obese mice after daily oral C15:0; format: in vivo, C57BL/6J mice; conditions: obese HFD mice
Protocol: (§1) This study examined the impact of daily oral administration of synthetic pentadecanoic acid (C15:0) on inflammation in an obese mouse model. Twenty C57BL/6J mice were fed a high fat diet (HFD) (D12492, 60% kcals fat) for 8 weeks. Study mice were then divided into the following two groups of ten: vehicle controls and C15:0-treated (5 mg/kg body weight). The predicted therapeutic dose of 5 mg/kg was based upon modified diet studies in the dolphin model.

[3] = Tolerability, body weight and food intake in high fat diet obese mice given C15:0; format: in vivo
Protocol: as §1
Mice in the C15:0 treatment group tolerated the test article throughout the study. […] No changes were found in body weight, percent body weight change, or food intake when comparing the study groups (not shown).

[4] = test system: erythrocyte sedimentation rate; test: Regression of serum fatty acid forms against erythrocyte sedimentation rate in dolphins on modified diet; format: in vivo, bottlenose dolphin (Tursiops truncatus); conditions: for Serum hexosylceramide concentration resulting in erythrocyte sedimentation rates lower than 15 mm/hr (threshold effect): FIGS. 3A-3B
[5] = Month 0 (baseline), 2h postprandial

CCCCCCCCCCCCCCCCCCCCCCCC(=O)O [C24:0, lignoceric acid]
concentration at 0 month ([1]; serum, oral): 18 ± 3 µM | concentration at 1 month ([1]; serum, oral): 17 ± 3 µM | concentration at 3 month ([1]; serum, oral): 18 ± 3 µM | concentration at 6 month ([1]; serum, oral): 18 ± 3 µM

CCCCCCCCCCCCCCCCCCCCCCCCCC(=O)O [C26:0]
Total serum fatty acid concentration [1, 5]: 1.0 ± 0.1 µM | Total serum fatty acid concentration ([1]; Month 1, 2h postprandial): 0.8 ± 0.1 µM | Total serum fatty acid concentration ([1]; Month 3, 2h postprandial): 0.9 ± 0.1 µM | Total serum fatty acid concentration ([1]; Month 6, 2h postprandial): 0.9 ± 0.1 µM

CCCCCCCCCCCCCCCC(=O)O [C16:0, palmitic acid]
Total serum fatty acid concentration [1, 5]: 1445 ± 194 µM | Total serum fatty acid concentration ([1]; Month 1, 2h postprandial): 1372 ± 199 µM | Total serum fatty acid concentration ([1]; Month 3, 2h postprandial): 1505 ± 221 µM | Total serum fatty acid concentration ([1]; Month 6, 2h postprandial): 1450 ± 155 µM

CCCCCCCCCCCCCCC(=O)O [C15:0, pentadecanoic acid]
Total serum fatty acid concentration ([1]; Month 1, 2h postprandial): 94 ± 33 µM | concentration at 0 month ([2]; serum, oral): 3.8 ± 1.3 µM | concentration at 1 month ([2]; serum, oral): 4.2 ± 1.5 µM | concentration at 3 month ([2]; serum, oral): 3.6 ± 0.8 µM | concentration at 6 month ([2]; serum, oral): 3.8 ± 1.3 µM | Serum IL-6 (IL-6, IL-18, and MCP-1; 5 mg/kg daily gastric gavage, Day 84 (n = 10), vehicle control 60 ± 68): 19 ± 11 | Serum MCP-1 (IL-6, IL-18, and MCP-1; 5 mg/kg daily gastric gavage, Day 84 (n = 10), vehicle control 83 ± 31): 52 ± 25 | Serum IL-18 (IL-6, IL-18, and MCP-1; 5 mg/kg daily gastric gavage, Day 84 (n = 10), vehicle control 206 ± 84): 101 ± 86 | Inflammation and adipokines (IL-6, IL-18, and MCP-1) compared to vehicle controls (IL-6, IL-18, and MCP-1; 5 mg/kg daily oral, 12 weeks, 5 mg/kg): lower; also recorded: reduced | Early mortalities in treated group ([3]; mouse, in vivo, 5 mg/kg): no early mortalities | Tolerability of the test article ([3]; mouse, in vivo, 5 mg/kg): tolerated | Body weight, percent body weight change, or food intake vs control group ([3]; obese HFD mice, 5 mg/kg daily gastric gavage, 12 weeks): No changes | Serum cholesterol ester concentration resulting in erythrocyte sedimentation rates lower than 15 mm/hr (threshold effect) ([4]; FIGS. 2A-2B): greater than 60 uM

CCCCCCCCCCCCCCCCCCCC(=O)O [C20:0, arachidic acid]
concentration at 0 month ([1]; in vivo): 94 ± 22 µM | concentration at 1 month ([1]; in vivo): 87 ± 17 µM | concentration at 3 month ([1]; in vivo): 98 ± 17 µM | concentration at 6 month ([1]; in vivo): 96 ± 15 µM | concentration at 0 month ([2]; in vivo): 6.6 ± 2.5 µM | concentration at 1 month ([2]; in vivo): 4.4 ± 1.4 µM | concentration at 3 month ([2]; in vivo): 5 ± 2.3 µM | concentration at 6 month ([2]; in vivo): 17 ± 10 µM | Serum hexosylceramide concentration resulting in erythrocyte sedimentation rates lower than 15 mm/hr (threshold effect) [4]: greater than 0.20 uM

CCCCCCCCCCCCCCCCCCCCCC(=O)O [C22:0, behenic acid]
Total serum fatty acid concentration [1, 5]: 23 ± 4 µM | Total serum fatty acid concentration ([1]; Month 1, 2h postprandial): 21 ± 3 µM | Total serum fatty acid concentration ([1]; Month 3, 2h postprandial): 23 ± 3 µM | Total serum fatty acid concentration ([1]; Month 6, 2h postprandial): 24 ± 5 µM | Serum hexosylceramide concentration resulting in erythrocyte sedimentation rates lower than 15 mm/hr (threshold effect) [4]: greater than 0.11 uM

CCCCCCCCCCCCCCCCC(=O)O [C17:0, heptadecanoic acid]
Total serum fatty acid concentration ([1]; Month 1, 2h postprandial): 82 ± 21 µM | Serum phosphatidylcholine concentration resulting in erythrocyte sedimentation rates lower than 15 mm/hr (threshold effect) ([4]; FIGS. 2A-2B): greater than 30 uM
